ChEMBL document CHEMBL3627616, “New multifunctional melatonin-derived benzylpyridinium bromides with potent cholinergic, antioxidant, and neuroprotective properties as innovative drugs for Alzheimer's disease” (Eur J Med Chem, 2015)
Calls of active or inactive are those of the source. No cut-off for these calls is given here.

Key:
[1] = Antioxidant activity assessed as trolox equivalent of AAPH radical scavenging activity preincubated for 15 mins followed by addition of AAPH solution measured for 80 mins by ORAC-FL method; type: physicochemical
SH-SY5Y [2] = test: Neuroprotective activity against H2O2-induced oxidative stress-associated death in human SH-SY5Y cells assessed as increase in cell viability at 10 uM incubated for 24 hrs prior to H2O2 challenge measured after 24 hrs by MTT assay; type: functional, cell-based
[3] = Antioxidant activity assessed as trolox equivalent of AAPH radical scavenging activity; type: physicochemical
Acetylcholinesterase [4] = target: T1, Acetylcholinesterase (Homo sapiens, UniProt P22303); test: Inhibition of human recombinant AChE using acetylthiocholine iodide as substrate preincubated for 5 mins followed by substrate addition by Ellman's method
Homo sapiens = species: Homo sapiens; test: Selectivity ratio of IC50 for human serum BuChE to IC50 for human recombinant AChE
Cholinesterase = Cholinesterase (Homo sapiens, UniProt P06276)
Description: Inhibition of human serum BuChE using S-butyrylthiocholine iodide as substrate preincubated for 5 mins followed by substrate addition by Ellman's method

Acetylcholinesterase [5] = target: T1, Acetylcholinesterase; test: Potency index, ratio of IC50 for donepezil to IC50 for test compound for inhibition of human recombinant AChE
SH-SY5Y [6] = test: Cytotoxicity against human SH-SY5Y cells assessed as cell survival at 1 to 50 uM after 24 hrs by MTT assay; type: cell-based
SH-SY5Y [7] = test: Neuroprotective activity against H2O2-induced oxidative stress-associated death in human SH-SY5Y cells assessed as increase in cell viability at 1 to 10 uM incubated for 24 hrs prior to H2O2 challenge measured after 24 hrs by MTT assay; type: functional, cell-based
Acetylcholinesterase [8] = target: T1, Acetylcholinesterase; conditions: 0.05 to 0.2 uM

Chain of Cholinesterase (P06276 whole entry): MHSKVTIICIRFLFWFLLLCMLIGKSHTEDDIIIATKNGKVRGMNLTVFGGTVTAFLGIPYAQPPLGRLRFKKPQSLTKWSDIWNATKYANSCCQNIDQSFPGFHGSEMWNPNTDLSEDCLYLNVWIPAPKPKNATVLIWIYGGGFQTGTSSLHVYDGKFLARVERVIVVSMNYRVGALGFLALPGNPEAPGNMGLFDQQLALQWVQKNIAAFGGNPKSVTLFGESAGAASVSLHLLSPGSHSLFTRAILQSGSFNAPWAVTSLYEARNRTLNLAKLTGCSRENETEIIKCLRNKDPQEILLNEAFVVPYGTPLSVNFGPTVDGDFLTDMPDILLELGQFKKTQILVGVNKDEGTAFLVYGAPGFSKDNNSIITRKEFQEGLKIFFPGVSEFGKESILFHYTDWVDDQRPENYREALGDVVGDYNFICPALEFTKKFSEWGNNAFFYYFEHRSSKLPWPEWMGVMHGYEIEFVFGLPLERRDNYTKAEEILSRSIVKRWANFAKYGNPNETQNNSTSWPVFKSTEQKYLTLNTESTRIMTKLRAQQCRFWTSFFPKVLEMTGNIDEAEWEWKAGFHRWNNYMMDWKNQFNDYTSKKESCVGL
T1 sequence (P22303 whole entry): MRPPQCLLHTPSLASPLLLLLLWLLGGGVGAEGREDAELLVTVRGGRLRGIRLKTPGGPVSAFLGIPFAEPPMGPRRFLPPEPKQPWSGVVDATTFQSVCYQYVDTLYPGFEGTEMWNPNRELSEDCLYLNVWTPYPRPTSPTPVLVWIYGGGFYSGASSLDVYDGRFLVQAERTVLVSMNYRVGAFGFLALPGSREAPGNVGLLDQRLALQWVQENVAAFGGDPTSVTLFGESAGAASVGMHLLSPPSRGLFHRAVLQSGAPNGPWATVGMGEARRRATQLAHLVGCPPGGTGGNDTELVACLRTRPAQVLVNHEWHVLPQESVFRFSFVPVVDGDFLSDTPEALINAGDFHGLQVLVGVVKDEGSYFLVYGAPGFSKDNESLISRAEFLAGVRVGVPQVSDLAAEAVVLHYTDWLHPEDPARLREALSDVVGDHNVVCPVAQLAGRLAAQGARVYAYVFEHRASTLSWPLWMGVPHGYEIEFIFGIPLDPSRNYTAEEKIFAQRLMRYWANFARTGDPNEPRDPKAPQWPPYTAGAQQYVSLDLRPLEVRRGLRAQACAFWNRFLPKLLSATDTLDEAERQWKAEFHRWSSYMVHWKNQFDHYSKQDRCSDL

| SMILES | Activity [1] [umolequiv/umol] | Activity (SH-SY5Y [2]) | Activity [3] [umolequiv/umol] | IC50 (Acetylcholinesterase [4]) [µM] | Ratio IC50 (Homo sapiens) | IC50 (Cholinesterase) [µM] | Ratio IC50 (Acetylcholinesterase [5]) | Activity (SH-SY5Y [6]) | Activity (SH-SY5Y [7]) | inhibition (Acetylcholinesterase [8]) |
| --- | --- | --- | --- | --- | --- | --- | --- | --- | --- | --- |
| COc1ccc2[nH]cc(CCNC(C)=O)c2c1 [MELATONIN] | 2.34 | Active | 2 |  |  |  |  |  |  |  |
| Cc1cccc(C[n+]2ccc(C(=O)NCCc3c[nH]c4ccccc34)cc2)c1.[Br-] | 1.36 |  |  | 2.7 | 2.1 | 5.8 |  |  |  |  |
| O=C(NCCc1c[nH]c2ccccc12)c1ccc[n+](Cc2ccccc2F)c1.[Br-] | 1.47 |  |  | 28.6 | 0.01 | 0.34 |  |  |  |  |
| N#Cc1ccc(C[n+]2ccc(C(=O)NCCc3c[nH]c4ccccc34)cc2)cc1.[Br-] | 1.56 |  |  | 22.9 | > 4.4 |  |  |  |  |  |
| COc1ccc2[nH]cc(CCNC(=O)CCc3cc[n+](Cc4ccc(F)cc4)cc3)c2c1.[Br-] | 2.49 |  |  | 0.58 | 1.1 | 0.65 |  |  |  |  |
| COc1ccc2[nH]cc(CCNC(=O)c3cc[n+](Cc4cccc(F)c4)cc3)c2c1.[Br-] | 1.87 |  |  | 3.8 | 2.1 | 7.9 |  |  |  |  |
| COc1ccc2[nH]cc(CCNC(=O)c3cc[n+](Cc4ccc(OC(=O)N(C)C)cc4)cc3)c2c1.[Br-] | 2.04 |  |  | 1.3 | 0.06 | 0.08 | 70 | Non-toxic | Active |  |
| Cc1ccc(C[n+]2ccc(C(=O)NCCc3c[nH]c4ccccc34)cc2)cc1.[Br-] | 1.72 |  |  | 5.7 | 1.6 | 8.9 |  |  |  |  |
| O=C(NCCc1c[nH]c2ccccc12)c1cc[n+](Cc2ccccc2)cc1.[Br-] | 1.29 |  |  | 4.2 | 0.67 | 2.8 |  |  |  |  |
| COc1ccc2[nH]cc(CCNC(=O)/C=C/c3cc[n+](Cc4cccc(F)c4)cc3)c2c1.[Br-] | 3.41 |  |  | 0.11 | 10 | 1.1 |  | Non-toxic | Active | Active |
| O=C(NCCc1c[nH]c2ccccc12)c1ccc[n+](Cc2ccccc2)c1.[Br-] | 1.49 |  |  | 30.5 | 0.009 | 0.28 |  |  |  |  |
| COc1ccc2[nH]cc(CCNC(=O)/C=C/c3cc[n+](Cc4ccc(F)cc4)cc3)c2c1.[Br-] | 3.51 |  |  | 0.21 | 3.4 | 0.71 |  |  |  |  |
| COc1ccc2[nH]cc(CCNC(=O)/C=C/c3cc[n+](Cc4ccccc4F)cc3)c2c1.[Br-] | 3.66 |  |  | 0.26 | 8.8 | 2.3 |  |  |  |  |
| COc1ccc2[nH]cc(CCNC(=O)c3cc[n+](Cc4ccc(F)cc4)cc3)c2c1.[Br-] | 2.09 |  |  | 5.1 | 1.5 | 7.5 |  |  |  |  |
| O=C(NCCc1c[nH]c2ccccc12)c1cc[n+](Cc2cccc(F)c2)cc1.[Br-] | 1.41 |  |  | 3.9 | 1.3 | 5.1 |  |  |  |  |
| COc1ccc2[nH]cc(CCNC(=O)CCc3cc[n+](Cc4cccc(F)c4)cc3)c2c1.[Br-] | 2.45 |  |  | 0.44 | 1.6 | 0.72 |  |  |  |  |
| COc1ccc2[nH]cc(CCNC(=O)c3cc[n+](Cc4ccccc4F)cc3)c2c1.[Br-] | 2.02 |  |  | 3.3 | 2.1 | 6.8 |  |  |  |  |
| O=C(NCCc1c[nH]c2ccccc12)c1cc[n+](Cc2ccc(F)cc2)cc1.[Br-] | 1.32 |  |  | 3.4 | 1.4 | 4.8 |  |  |  |  |
| O=C(NCCc1c[nH]c2ccccc12)c1cc[n+](Cc2ccccc2F)cc1.[Br-] | 1.14 |  |  | 3.2 | 1.3 | 4.1 |  |  |  |  |
| COc1ccc2[nH]cc(CCNC(=O)CCc3cc[n+](Cc4ccccc4F)cc3)c2c1.[Br-] | 2.51 |  |  | 0.53 | 1.6 | 0.86 |  |  |  |  |
